These results are taken from patent US20200071675A1, “METHOD FOR PRODUCING ENDOTHELIAL CELLS” (TAKARA BIO INC., priority 2016, published 2020).

Each structure is given as a SMILES string. Read-outs that look alike come from different tables or passages of the source.

For test [1], the system named is KDR-positive vascular endothelial progenitor cells from human iPS cells (ChiPSC12 strain). The experiment in a line: CD31-positive cell ratio (endothelial cell marker) by flow cytometry. It is filed as cell-based. Here is the method:
Human iPS cells ([…]) were cultured in DEF-CS medium (Cellartis) in accordance with the instructions attached to the medium. In order to efficiently induce differentiation of mesodermal cells, iPS cells were coated with Matrigel (Matrigel Sandwich method) in accordance with the following procedures. […] Here, SB431542, another TGF-β inhibitor, was used as a negative control. The cells were collected at Day 11, and the cell numbers were counted.
A general note: In flow cytometry, cells or beads pass a laser one at a time.

Test [2] shares this test system. The experiment in a line: Cell numbers during differentiation of iPS cell-derived vascular endothelial progenitor cells cultured with a TGF-β inhibitor (Days 8 to 11). It is filed as cell-based. The following applies: for Cell Numbers (Day 19) / Cell Numbers (Day 30): cell numbers at Day 8 defined as 1.
The test system is the same in test [3]. Here is the method: Human iPS cells (ChiPSC12 strain) were cultured in DEF-CS medium in accordance with the instructions attached to the medium.
TrypLE(trademark) Select was added to iPS cells that had been subcultured, and the cells were incubated at 37° C. for 3 to 7 minutes. The detached cells were collected as a single cell by pipetting, and the cell numbers were counted. […] Thereafter, the medium was exchanged with DEF-CS medium added with Matrigel diluted to 1:60, and the cells were cultured for additional 16 to 24 hours, thereby coating an upper layer of the cells with Matrigel.
The Matrigel-coated iPS cells obtained were differentiated into mesodermal cells in accordance with the following procedures. First, a medium of the Matrigel-coated iPS cells was exchanged with RPMI 1640 medium added with 100 ng/mL activin A, 2 mM GlutaMAX(trademark), and B27 supplement (without containing insulin) (this time point being defined as the beginning of the induction of differentiation=Day 0), and the cells were cultured for 24 hours (Day 1). Next, the medium was exchanged with RPMI 1640 medium added with 10 ng/mL hBMP4, 10 ng/mL hbFGF, 2 mM GlutaMAX, and B27 supplement, and the cells were cultured for 3 days (Day 4). Thereafter, the medium was exchanged with RPMI 1640 medium added with 100 ng/mL VEGF, 2 mM GlutaMAX, and B27 supplement, and the cells were cultured overnight (Day 5).
KDR-positive cells were separated from the cultured cells at Day 5 by using the magnetic-activated cell sorting, thereby isolating vascular endothelial progenitor cells. In order to separate the KDR-positive cells, an anti-KDR antibody to which a PE fluorescent label was bound was used as a primary antibody for labeling cells, and cells labeled with the primary antibody were collected with magnetic beads embedding anti-PE antibodies. […] Further, the medium at Day 6 was exchanged with RPMI 1640 medium added with B27 supplement, 50 units/mL penicillin, 50 μg/mL streptomycin, 2 mM GlutaMAX, and 100 ng/mL VEGF, and the cells were cultured for 2 days (Day 8).
Here, CD31 is a marker of endothelial cells, and CD34 is a marker of hematopoietic stems cells or endothelial progenitor cells. In addition, CD34 is also expressed in juvenile endothelial cells.

Test [4] relates to vascular endothelial cells induced from human iPS cells (ChiPSC12 strain). The experiment in a line: Freezing and thawing of vascular endothelial cells induced with RepSox. The following applies: cells induced with 20 μM RepSox, collected Days 18 to 22, stored in liquid nitrogen for 3 days, thawed at 37° C.
Experimental: The collected cells were washed, and suspended in Stem Cell Banker (TAKARA BIO INC.) so as to have a cell concentration of 3×10^6/mL, and 1 mL of each of the suspension was dispensed to vials. The vials were placed in a frozen-treated vessel (BICELL, Nihon Freezer Co., Ltd.), and the cells were subjected to slow freezing in a freezing storage chamber held at a temperature of −80° C. Thereafter, each vial was transferred to a liquid nitrogen, and stored for 3 days.
The frozen cells were warmed for 2 minutes and 30 seconds with a water bath warmed to 37° C., to thaw the cells. […] An entire amount of the remaining cells was added to a tube to which 8 mL of a medium for proliferating endothelial cells had been dispensed in advance. Thereafter, a vial was rinsed with 1 mL of a medium for proliferating endothelial cells, and a rinsed medium was added to the tube. The tube was centrifuged at 200×g for 5 minutes, and the supernatant was then discarded. The cells were suspended in a fresh medium for culturing endothelial cells, and the cells were seeded at a density of 2×10^4 cells/cm^2 to a culture vessel. […]
The cells were collected on a seventh day after thawing the cells, and the cell numbers were counted. At the same time, the CD31-positive cell ratio, an endothelial cell marker, was measured with a flow cytometry.

With `Cc1cccc(-c2[nH]ncc2-c2ccc3ncccc3n2)n1` [RepSox], the “CD31-Positive (Day 19)” value in test [1] (3 μM inhibitor Days 8 to 11) was found to be 98.9%; in test [1] (10 μM inhibitor Days 8 to 11), 99.7%; in test [1] (20 μM inhibitor Days 8 to 11), 99.8%. For the same molecule, the results for the “CD31-Positive (Day 30)” value in test [1] (3 μM inhibitor Days 8 to 11), in test [1] (10 μM inhibitor Days 8 to 11) and in test [1] (20 μM inhibitor Days 8 to 11) were 87.0%, 99.0% and 99.1%, respectively. Further, the “CD31-positive ratios (Day 30)” value in test [1] (text summary: 'in both the media containing 3 μM RepSox') is at least 87%. In addition, the results for the “Cell Numbers (Day 19)” value in test [2] (3 μM inhibitor Days 8 to 11), in test [2] (10 μM inhibitor Days 8 to 11) and in test [2] (20 μM inhibitor Days 8 to 11) were 3.1, 3.5 and 3.5, respectively. Further, the entries for the “Cell Numbers (Day 30)” value in test [2] (3 μM inhibitor Days 8 to 11), in test [2] (10 μM inhibitor Days 8 to 11) and in test [2] (20 μM inhibitor Days 8 to 11) were 2.5, 9.1 and 3.1, respectively. Besides, the “cell proliferation rates at Day 30” value in test [2] (text summary: 'in both the media containing 3 μM RepSox', relative to Day 8 = 1) is listed as at least 2.5. In addition, the “CD31+/CD34+ (Day 13)” value in test [3] (3 μM RepSox Day 8 to 11) stood at 96.9%; in test [3] (10 μM RepSox Day 8 to 11) it was 96.1%; in test [3] (20 μM RepSox Day 8 to 11) it was 95.8%. The “CD31+/CD34+ (Day 18)” value is recorded as 93.3% in test [3] (3 μM RepSox Day 8 to 11), 94.4% in test [3] (10 μM RepSox Day 8 to 11) and 96.1% in test [3] (20 μM RepSox Day 8 to 11). For the same molecule, the “CD31+/CD34+ cells at Day 13” value in test [3] (regardless of the concentrations of RepSox (3, 10, 20 μM)) is at least 95%. Also, the “cell viability after thawing” value in test [4] is recorded as 87%.
`NC(=O)c1ccc(-c2nc(-c3ccc4c(c3)OCO4)c(-c3ccccn3)[nH]2)cc1` [SB431542]: in test [1] (10 μM inhibitor Days 8 to 11), the “CD31-Positive (Day 19)” value was 97.7% and the “CD31-Positive (Day 30)” value is reported as 89.4%. Also, in test [1] (20 μM inhibitor Days 8 to 11), the “CD31-Positive (Day 19)” value was determined as 98.7% and the “CD31-Positive (Day 30)” value came out at 33.0%. For the same molecule, in test [2] (10 μM inhibitor Days 8 to 11), the “Cell Numbers (Day 19)” value turned out to be 1.3 and the “Cell Numbers (Day 30)” value came out at 0.9. In test [2] (20 μM inhibitor Days 8 to 11), the “Cell Numbers (Day 19)” value turned out to be 2.3 and the “Cell Numbers (Day 30)” value is recorded as 5.1.
